Assay results taken from patent publication US5466712A, “Substituted n-aryl-1,2-diaminocyclobutene-3,4-diones” (American Home Products Corporation, priority 1994, dated 1995).

Tested on: Isolated Rat Bladder Strips
Assay: Inhibition of Contractions in Isolated Rat Bladder Strips (15 mM KCl-enhanced contractions)
Assay type: cell-based, Sprague-Dawley rats
Details: 0.5 h, 30 min challenge; for IC50: concentration eliciting 50% inhibition of pre-drug contractile activity; for inhibition at 30 µM: read-out: Inhibition of Force (%) at (x) μM
Text: Smooth muscle relaxing activity of the compounds of this invention was established in accordance with standard pharmaceutically accepted test procedures in representative compounds as follows:
Sprague-Dawley rats (150-200 g) are rendered unconscious by CO2 asphyxiation and then euthanized by cervical dislocation. The bladder is removed into warm (37 deg. C.) physiological salt solution (PSS) of the following composition (mM): NaCl, 118.4; KCl, 4.7; […]; NaHCO3, 24.9; KH2 PO4, 1.2; glucose, 11.1; EDTA, 0.023; gassed with […]; pH 7.4. The bladder is opened and then cut into strips 1-2 mm in width and 7-10 mm in length. The strips are subsequently suspended in a 10 mL tissue bath under an initial resting tension of 1.5 g. The strips are held in place by two surgical clips one of which is attached to fixed hook while the other is attached to an isometric force transducer. […] The carbachol is then washed out and the tissue allowed to relax to its resting level of activity. Following 1 further 30 min period of recovery an additional 15 mM KCl are introduced into the tissue bath. This increase in KCl concentration results in a large increase in the amplitude of spontaneous contractions (and initiation of contractions in previously quiescent strips) superimposed upon a small increase in basal tone. Following stabilization of this enhanced level of contractile activity, incremental increases in the concentration of test compound or vehicle are introduced into the tissue bath. Contractile activity is measured for each compound or vehicle concentration during the last […] of a 30 min challenge.
Isometric force developed by the bladder strips is measured using a […] to elicit 50% inhibition of pre-drug contractile activity (IC50 concentration) is calculated from this concentration-response curve. The maximum percentage inhibition of contractile activity evoked by a test compound is also recorded for concentrations of test compound<or equal to 30 μM.

SMILES | IC50 | inhibition at 30 µM
C[C@@H](Nc1c(Nc2ccc(C#N)cc2)c(=O)c1=O)c1ccccc1 [Example 1, 4-[3,4-Dioxo-2-((R)-1-phenyl-ethylamino)-cyclobut-1-enylamino]-benzonitrile] | 0.056 µM | –
C[C@H](Nc1c(Nc2ccc(C#N)cc2)c(=O)c1=O)c1ccccc1 [Example 5, 4-[3.4-Dioxo-2-((S)-1-phenyl-ethylamino)-cyclobut-1-enylamino]-benzonitrile] | – | 38%
CC(C)(Nc1c(Nc2ccc(C#N)cc2)c(=O)c1=O)c1ccccc1 [Example 9, 4-[3,4-Dioxo-2-(1-methyl-1-phenyl-ethylamino)-cyclobut-1-enylamino]-benzonitrile] | – | 22%
C[C@@H](Nc1c(Nc2ccncc2)c(=O)c1=O)c1ccccc1 [Example 4, 3-((R)-1-Phenyl-ethylamino)-4-(pyridin-4-ylamino)-cyclobut-3-ene-1,2-dione] | 2.3 µM | –
CC[C@H](Nc1c(Nc2ccc(C#N)cc2)c(=O)c1=O)c1ccccc1 [Example 11, 4-[3,4-Dioxo-2-((S)-1-phenyl-propylamino)-cyclobut-1-enylamino]-benzonitrile] | – | 28%
